Results published in patent US20170127693A1, “NUTRITIONAL COMPOSITIONS CONTAINING BUTYRATE AND USES THEREOF” (Mead Johnson Nutrition Company, priority 2015, published 2017).

Assay type: physicochemical
Source text: The dietary butyrate can comprise a phenylalanine amide derivative of butyric acid. In fact, use of a phenylalanine amide derivative of butyric acid provides for improved organoleptic and physicochemical characteristics as it is an odorless and colorless solid crystalline powder. Furthermore, the purification of phenylalanine amide derivatives of butyric acid may be particularly economical for purification in terms of the cost to purify versus the yield of compound ratio. Accordingly, in certain embodiments, the dietary butyrate may comprise an acid-stable butyrate amide with the amino acid phenylalanine, such as phenylalanine-butyramide (“FBA”). […] Moreover, the solubility of FBA in water is satisfactory as it produces clear solutions up to the concentration 0.1 M and suspensions at higher concentrations. Accordingly, FBA is a suitable form of dietary butyrate that may be incorporated into powdered nutritional compositions that are to be reconstituted with water or some other type of liquid.

- solubility in water (concentration up to which clear solutions are produced): ≤ 100 mM
- stability to acids and alkalis: stable to acids and alkalis
Substance: phenylalanine-butyramide [FBA]
